Measured values: patent US20200352991A1, “POLYMER FILMS WITH ANTIMICROBIAL AGENTS” (The Trustees of Columbia University in the City of New York, priority 2017, published 2020)

Key:
S. aureus = test: Rapid kill test, 15 second time kill; format: cell-based; conditions: 100 ul of 104 S. aureus culture, 15 second time kill
[1] = tested on: P. aeruginosa (ATCC 15442); test: Zone of inhibition test of coated endotracheal tubes, modified Kirby-Bauer method; format: cell-based; conditions: coated endotracheal tube segments, 24 hours, ETT diameter (10 mm) is included
Experimental: Efficacy of the coated tubes was evaluated by zone of inhibition test against P. aeruginosa (ATCC 15442) after 24 hours.
Method: The anti-microbial efficacy of the coated endotracheal tube (ETT) was evaluated by zone of inhibition test against P. aeruginosa (ATCC 15442) according to the modified Kirby-Bauer method. Trypticase soy agar (TSA) plates were seeded with 0.3 mL of overnight grown bacterial culture diluted to 107 colony forming units (CFU) per mL.
Antimicrobial coated ETTs were cut into 0.5 cm segments and embedded vertically into the agar plate. Uncoated ETT segments were used as control. After 24 hours of incubation at 37° C., the diameters of zones of inhibition around the ETT segments, including the diameters of the ETT, were measured.

| Compound | Log10 reduction (S. aureus) [Log10] | Zone of inhibition against P. aeruginosa [1] [mm] |
| --- | --- | --- |
| CC(=O)N[C@@H](CS)C(=O)O [N-acetyl cystein (NAC, 1%), N-acetyl cystein] | 0.34 | 0 |
| [H]/N=C(\N/C(=N/[H])NCCCCCCNC(=N)NC(=N)Nc1ccc(Cl)cc1)Nc1ccc(Cl)cc1 [Chlorhexidine (CHX, 0.3%), Chlorhexidine] | 4.51 | 20 |
